Consider 11 molecules from patent EP4603506A1, “NOVEL GLP-1 RECEPTOR ANTAGONIST, AND PHARMACEUTICAL COMPOSITION FOR PREVENTING OR TREATING CONGENITAL […] OR HYPOGLYCEMIA, COMPRISING SAME” (Hanmi Pharm. Co., Ltd., priority 2022, dated 2024).

Starred links: 1 amine or outer side, 2 acyl side, 3 side chain; linkers in the order of their positions; H or OH if unused. Residues, ends and D or L forms follow the SMILES beside them. Groups on a side chain read outwards from the residue. *: point of attachment. C20 diacid = O=C(O)CCCCCCCCCCCCCCCCCCC(=O)*; C18 diacid = O=C(O)CCCCCCCCCCCCCCCCC(=O)*; γGlu = O=C(O)[C@H](CCC(=O)[*:2])N[*:1]; AEEA = NCCOCCOCC(=O)O

B1: acylated GLP-1R antagonist analog conjugate (SEQ ID NO: 20) (peptide)
peptide: Ac-DVSSYLEEEAVRLFIAWLVKGGPSSGAPPPSK([AEEA-AEEA-γGlu-C20 diacid])-NH2
SMILES: CC[C@H](C)[C@H](NC(=O)[C@H](Cc1ccccc1)NC(=O)[C@H](CC(C)C)NC(=O)[C@H](CCCNC(=N)N)NC(=O)[C@@H](NC(=O)[C@H](C)NC(=O)[C@H](CCC(=O)O)NC(=O)[C@H](CCC(=O)O)NC(=O)[C@H](CCC(=O)O)NC(=O)[C@H](CC(C)C)NC(=O)[C@H](Cc1ccc(O)cc1)NC(=O)[C@H](CO)NC(=O)[C@H](CO)NC(=O)[C@@H](NC(=O)[C@H](CC(=O)O)NC(C)=O)C(C)C)C(C)C)C(=O)N[C@@H](C)C(=O)N[C@@H](Cc1c[nH]c2ccccc12)C(=O)N[C@@H](CC(C)C)C(=O)N[C@H](C(=O)N[C@@H](CCCCN)C(=O)NCC(=O)NCC(=O)N1CCC[C@H]1C(=O)N[C@@H](CO)C(=O)N[C@@H](CO)C(=O)NCC(=O)N[C@@H](C)C(=O)N1CCC[C@H]1C(=O)N1CCC[C@H]1C(=O)N1CCC[C@H]1C(=O)N[C@@H](CO)C(=O)N[C@@H](CCCCNC(=O)COCCOCCNC(=O)COCCOCCNC(=O)CC[C@H](NC(=O)CCCCCCCCCCCCCCCCCCC(=O)O)C(=O)O)C(N)=O)C(C)C
B2: acylated GLP-1R antagonist analog conjugate (SEQ ID NO: 18) (peptide)
peptide: Ac-DVSSYLEEEAVRLFIAWLVKGGPSSGAPPPSK([AEEA-AEEA-γGlu-C18 diacid])-NH2
SMILES: CC[C@H](C)[C@H](NC(=O)[C@H](Cc1ccccc1)NC(=O)[C@H](CC(C)C)NC(=O)[C@H](CCCNC(=N)N)NC(=O)[C@@H](NC(=O)[C@H](C)NC(=O)[C@H](CCC(=O)O)NC(=O)[C@H](CCC(=O)O)NC(=O)[C@H](CCC(=O)O)NC(=O)[C@H](CC(C)C)NC(=O)[C@H](Cc1ccc(O)cc1)NC(=O)[C@H](CO)NC(=O)[C@H](CO)NC(=O)[C@@H](NC(=O)[C@H](CC(=O)O)NC(C)=O)C(C)C)C(C)C)C(=O)N[C@@H](C)C(=O)N[C@@H](Cc1c[nH]c2ccccc12)C(=O)N[C@@H](CC(C)C)C(=O)N[C@H](C(=O)N[C@@H](CCCCN)C(=O)NCC(=O)NCC(=O)N1CCC[C@H]1C(=O)N[C@@H](CO)C(=O)N[C@@H](CO)C(=O)NCC(=O)N[C@@H](C)C(=O)N1CCC[C@H]1C(=O)N1CCC[C@H]1C(=O)N1CCC[C@H]1C(=O)N[C@@H](CO)C(=O)N[C@@H](CCCCNC(=O)COCCOCCNC(=O)COCCOCCNC(=O)CC[C@H](NC(=O)CCCCCCCCCCCCCCCCC(=O)O)C(=O)O)C(N)=O)C(C)C

Chain of human GLP-1R (hGLP-1R) (P43220 24-463): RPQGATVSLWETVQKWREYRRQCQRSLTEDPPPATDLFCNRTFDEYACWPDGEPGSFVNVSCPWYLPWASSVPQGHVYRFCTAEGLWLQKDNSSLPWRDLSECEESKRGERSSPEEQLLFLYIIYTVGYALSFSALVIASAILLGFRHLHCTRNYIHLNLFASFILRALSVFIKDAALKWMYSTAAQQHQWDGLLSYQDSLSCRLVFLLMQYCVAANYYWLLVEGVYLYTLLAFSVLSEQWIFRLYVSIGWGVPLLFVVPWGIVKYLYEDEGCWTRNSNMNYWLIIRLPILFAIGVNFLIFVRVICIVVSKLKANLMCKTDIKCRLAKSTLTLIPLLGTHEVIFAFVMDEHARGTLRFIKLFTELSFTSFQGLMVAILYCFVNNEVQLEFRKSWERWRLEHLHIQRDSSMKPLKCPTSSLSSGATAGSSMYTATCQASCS

The first test concerns the target human GLP-1 receptor (GLP-1R) (human, UniProt P43220 24-463). Kind of test: cell-based or functional assay.
Settings: not given
Turning to DLSSQMEEEAVRLFIEWLKNGGPSSGAPPPS (N-terminus acetylated; C-terminal amide) [GLP-1R antagonist analog (SEQ ID NO: 5)], the “In vitro activity compared with comparative substance (%); IC50 of cAMP inhibition in hGLP-1R CHO cells with 0.1 nM GLP-1” value worked out at 85%.
As to Ac-TSDVSSYLEEEAVRLFIAWLVKGGPSSGAPPPS-NH2 [GLP-1R antagonist analog (SEQ ID NO: 7)], the “In vitro activity compared with comparative substance (%); IC50 of cAMP inhibition in hGLP-1R CHO cells with 0.1 nM GLP-1” value came out at 196%.
On the same count and under the same terms, for B1 the value was 15.1%; for Ac-DVSSYLEEEAVRLFIAWLVKGGPSSGAPPPS-NH2 [GLP-1R antagonist analog (SEQ ID NO: 8)], 238%.
For B2, the “In vitro activity compared with comparative substance (%); IC50 of cAMP inhibition in hGLP-1R CHO cells with 0.1 nM GLP-1” value came to 19.8%.

A further test has as its target human GLP-1R (hGLP-1R) (Homo sapiens, UniProt P43220). Kind of test: In vitro cell activity: cAMP inhibition (LANCE Ultra cAMP kit) in CHO cells expressing human GLP-1R, with GLP-1 added. The settings on record: relative activity from IC50 of cAMP inhibition; 0.1 nM GLP-1 added; comparative substance exendin-3 (9-39) amide = 100. It counts as cell-based. The protocol: The human GLP-1R-expressed CHO cells were cultured in a 384-well plate for 24 hours. Thereafter, the culture was removed, and 10 µL of each serially diluted substance was added to the plate, followed by incubation at room temperature for 30 minutes. Then, 5 µL of Eu-cAMP tracer was added, and then 5 µL of a buffer containing cAMP antibodies was added, followed by incubation at room temperature for 60 minutes. […]
In general terms: Time-resolved FRET reads energy transfer from a long-lived donor to a nearby acceptor.
As for `CC[C@H](C)[C@H](NC(=O)[C@H](Cc1ccccc1)NC(=O)[C@H](CC(C)C)NC(=O)[C@H](CCCNC(=N)N)NC(=O)[C@@H](NC(=O)[C@H](C)NC(=O)[C@H](CCC(=O)O)NC(=O)[C@H](CCC(=O)O)NC(=O)[C@H](CCC(=O)O)NC(=O)[C@H](CC(C)C)NC(=O)[C@H](Cc1ccc(O)cc1)NC(=O)[C@H](CO)NC(=O)[C@H](CO)NC(=O)[C@@H](NC(=O)[C@H](CC(=O)O)NC(C)=O)C(C)C)C(C)C)C(=O)N[C@@H](C)C(=O)N[C@@H](Cc1c[nH]c2ccccc12)C(=O)N[C@@H](CC(C)C)C(=O)N[C@H](C(=O)N[C@@H](CCCCN)C(=O)NCC(=O)NCC(=O)N1CCC[C@H]1C(=O)N[C@@H](CO)C(=O)N[C@@H](CO)C(=O)NCC(=O)N[C@@H](C)C(=O)N1CCC[C@H]1C(=O)N1CCC[C@H]1C(=O)N1CCC[C@H]1C(=O)N[C@@H](CO)C(=O)N[C@@H](CCCCNC(=O)COCCOCCNC(=O)COCCOCCNC(=O)CC[C@H](NC(=O)CCCCCCCCCCCCCCCCC(=O)O)C(=O)O)C(N)=O)C(C)C` [SEQ ID NO: 18] (Ac-DVSSYLEEEAVRLFIAWLVKGGPSSGAPPPSK([AEEA-AEEA-γGlu-C18 diacid])-NH2), the “In vitro activity compared with comparative substance (%)” value amounted to 19.8%.
In the case of `CC[C@H](C)[C@H](NC(=O)[C@H](Cc1ccccc1)NC(=O)[C@H](CC(C)C)NC(=O)[C@H](CCCNC(=N)N)NC(=O)[C@@H](NC(=O)[C@H](C)NC(=O)[C@H](CCC(=O)O)NC(=O)[C@H](CCC(=O)O)NC(=O)[C@H](CCC(=O)O)NC(=O)[C@H](CC(C)C)NC(=O)[C@H](Cc1ccc(O)cc1)NC(=O)[C@H](CO)NC(=O)[C@H](CO)NC(=O)[C@@H](NC(=O)[C@H](CC(=O)O)NC(C)=O)C(C)C)C(C)C)C(=O)N[C@@H](C)C(=O)N[C@@H](Cc1c[nH]c2ccccc12)C(=O)N[C@@H](CC(C)C)C(=O)N[C@H](C(=O)N[C@@H](CCCCNC(=O)COCCOCCNC(=O)COCCOCCNC(=O)CC[C@H](NC(=O)CCCCCCCCCCCCCCCCC(=O)O)C(=O)O)C(=O)NCC(=O)NCC(=O)N1CCC[C@H]1C(=O)N[C@@H](CO)C(=O)N[C@@H](CO)C(=O)NCC(=O)N[C@@H](C)C(=O)N1CCC[C@H]1C(=O)N1CCC[C@H]1C(=O)N1CCC[C@H]1C(=O)N[C@@H](CO)C(N)=O)C(C)C` [SEQ ID NO: 15], the “In vitro activity compared with comparative substance (%)” value is 14.3%.
Take `CC[C@H](C)[C@H](NC(=O)[C@H](Cc1ccccc1)NC(=O)[C@H](CC(C)C)NC(=O)[C@H](CCCNC(=N)N)NC(=O)[C@@H](NC(=O)[C@H](C)NC(=O)[C@H](CCC(=O)O)NC(=O)[C@H](CCC(=O)O)NC(=O)[C@H](CCC(=O)O)NC(=O)[C@H](CC(C)C)NC(=O)[C@H](Cc1ccc(O)cc1)NC(=O)[C@H](CO)NC(=O)[C@H](CO)NC(=O)[C@@H](NC(=O)[C@H](CC(=O)O)NC(=O)[C@H](CO)NC(=O)[C@@H](NC(C)=O)[C@@H](C)O)C(C)C)C(C)C)C(=O)N[C@@H](C)C(=O)N[C@@H](Cc1c[nH]c2ccccc12)C(=O)N[C@@H](CC(C)C)C(=O)N[C@H](C(=O)N[C@@H](CCCCN)C(=O)NCC(=O)NCC(=O)N1CCC[C@H]1C(=O)N[C@@H](CO)C(=O)N[C@@H](CO)C(=O)NCC(=O)N[C@@H](C)C(=O)N1CCC[C@H]1C(=O)N1CCC[C@H]1C(=O)N1CCC[C@H]1C(=O)N[C@@H](CO)C(N)=O)C(C)C` [SEQ ID NO: 7] (Ac-TSDVSSYLEEEAVRLFIAWLVKGGPSSGAPPPS-NH2): the “In vitro activity compared with comparative substance (%)” value turned out to be 195.5%.
Consider `CC[C@H](C)[C@H](NC(=O)[C@H](Cc1ccccc1)NC(=O)[C@H](CC(C)C)NC(=O)[C@H](CCCNC(=N)N)NC(=O)[C@@H](NC(=O)[C@H](C)NC(=O)[C@H](CCC(=O)O)NC(=O)[C@H](CCC(=O)O)NC(=O)[C@H](CCC(=O)O)NC(=O)[C@H](CC(C)C)NC(=O)[C@H](Cc1ccc(O)cc1)NC(=O)[C@H](CO)NC(=O)[C@H](CO)NC(=O)[C@@H](NC(=O)[C@H](CC(=O)O)NC(C)=O)C(C)C)C(C)C)C(=O)N[C@@H](C)C(=O)N[C@@H](Cc1c[nH]c2ccccc12)C(=O)N[C@@H](CC(C)C)C(=O)N[C@H](C(=O)N[C@@H](CCCCN)C(=O)NCC(=O)NCC(=O)N1CCC[C@H]1C(=O)N[C@@H](CO)C(=O)N[C@@H](CO)C(=O)NCC(=O)N[C@@H](C)C(=O)N1CCC[C@H]1C(=O)N1CCC[C@H]1C(=O)N1CCC[C@H]1C(=O)N[C@@H](CO)C(=O)N[C@@H](CS)C(N)=O)C(C)C` [SEQ ID NO: 12] (Ac-DVSSYLEEEAVRLFIAWLVKGGPSSGAPPPSC-NH2), for which the “In vitro activity compared with comparative substance (%)” value was found to be 189.3%.
Turning to `CC[C@H](C)[C@H](NC(=O)[C@H](Cc1ccccc1)NC(=O)[C@H](CCC(=O)O)NC(=O)[C@H](CCCNC(=N)N)NC(=O)[C@@H](NC(=O)[C@H](C)NC(=O)[C@H](CCC(N)=O)NC(=O)[C@H](CCC(=O)O)NC(=O)[C@H](CCC(=O)O)NC(=O)[C@H](CC(C)C)NC(=O)[C@H](Cc1ccc(O)cc1)NC(=O)[C@H](CO)NC(=O)[C@H](CO)NC(=O)[C@@H](NC(=O)[C@H](CC(=O)O)NC(C)=O)C(C)C)C(C)C)C(=O)N[C@@H](C)C(=O)N[C@@H](Cc1c[nH]c2ccccc12)C(=O)N[C@@H](CC(C)C)C(=O)N[C@H](C(=O)N[C@@H](CCCCN)C(=O)NCC(=O)NCC(=O)N1CCC[C@H]1C(=O)N[C@@H](CO)C(=O)N[C@@H](CO)C(=O)NCC(=O)N[C@@H](C)C(=O)N1CCC[C@H]1C(=O)N1CCC[C@H]1C(=O)N1CCC[C@H]1C(=O)N[C@@H](CO)C(N)=O)C(C)C` [SEQ ID NO: 9] (Ac-DVSSYLEEQAVREFIAWLVKGGPSSGAPPPS-NH2), the “In vitro activity compared with comparative substance (%)” value is on record as 188.6%.
For `CC[C@H](C)[C@H](NC(=O)[C@H](Cc1ccccc1)NC(=O)[C@H](CC(C)C)NC(=O)[C@H](CCCNC(=N)N)NC(=O)[C@@H](NC(=O)[C@H](C)NC(=O)[C@H](CCC(=O)O)NC(=O)[C@H](CCC(=O)O)NC(=O)[C@H](CCC(=O)O)NC(=O)[C@H](CC(C)C)NC(=O)[C@H](Cc1ccc(O)cc1)NC(=O)[C@H](CO)NC(=O)[C@H](CO)NC(=O)[C@@H](NC(=O)[C@H](CC(=O)O)NC(C)=O)C(C)C)C(C)C)C(=O)N[C@@H](C)C(=O)N[C@@H](Cc1c[nH]c2ccccc12)C(=O)N[C@@H](CC(C)C)C(=O)N[C@H](C(=O)N[C@@H](CCCCN)C(=O)NCC(=O)NCC(=O)N1CCC[C@H]1C(=O)N[C@@H](CO)C(=O)N[C@@H](CO)C(=O)NCC(=O)N[C@@H](C)C(=O)N1CCC[C@H]1C(=O)N1CCC[C@H]1C(=O)N1CCC[C@H]1C(=O)N[C@@H](CO)C(N)=O)C(C)C` [SEQ ID NO: 8] (Ac-DVSSYLEEEAVRLFIAWLVKGGPSSGAPPPS-NH2), the “In vitro activity compared with comparative substance (%)” value worked out at 238.5%.
